The values below come from patent US20260216299A1, “Use of Cytoglobin in Preparation of Drug for Preventing and/or Treating Diabetes” (priority 2022, published 2026).

The test system of experiment [1] is pancreatic tissue of C57BL/6J diabetic model mice. The experiment can be described thus: H&E staining of pancreatic tissue sections. Type of experiment: in vivo, C57BL/6J mice. The note with it: acinar cell steatosis, islet morphology, inflammation; FIGS. 12A-12D. As for the experimental part:
(§1) The AUC for blood glucose changes within two hours post-glucose gavage was shown in FIG. 5, confirming impaired glucose tolerance in the DM group. • 2) Successfully modeled mice were divided into three groups based on no statistical difference in blood glucose within groups and statistical difference in blood glucose between groups: wherein the three groups are rhCygb treatment group (5 mg/kg subcutaneous injection), exendin-4 treatment group (50 μg/kg subcutaneous injection), and placebo group (0.1 mL PBS subcutaneous injection) (grouping without re-caging, mice remained in original cages), respectively.
(§2) The mice of placebo group, rhCygb treatment group, and EX-4 treatment group received daily subcutaneous injections of PBS, rhCygb, or EX-4, respectively for 2 months (frequency adjusted based on survival status of mice). […] Absorbance at 510 nm was measured using a microplate reader. Cholesterol content was calculated according to the formula: […]
The severity of lesions observed in the HE-stained pathological sections of each mouse was graded. This ordinal data was analyzed using the K Independent Samples non-parametric test in SPSS software, and the result indicated a statistically significant difference between groups. As SPSS lacks pairwise comparison for multiple independent samples, all data were ranked and converted into quantitative data, then subjected to one-way ANOVA.

Experiment [2] relates to C57BL/6J diabetic model mice. The experiment can be described thus: Four blood lipid items in serum of treated mice (T-CHO, TG, HDL-C, LDL-C kits). Particulars: subcutaneous rhCygb 5 mg/kg or exendin-4 50 μg/kg, after 28 d of treatment. Type of experiment: in vivo, C57BL/6J mice. As for the experimental part:
as §1, §2
Serum from each treated C57BL/6J mouse was assayed using a total cholesterol assay kit. […] Absorbance at 510 nm was measured using a microplate reader. […] content was calculated according to the formula: […]
Serum from each treated C57BL/6J mouse was assayed using a triglyceride assay kit. […] Absorbance at 546 nm (A1) was measured using a microplate reader. […] Absorbance at 546 nm (A2) was measured again. […]

With Exendin-4 [reference compound], the “pancreatic tissue morphology (H&E)” value in experiment [1] is reported as “persistent acinar steatosis similar to the PBS group”. For the same substance, in experiment [2] (FIG. 8), the total cholesterol levels entry is “statistically significant reduction in total cholesterol levels compared to the placebo group”. For the same substance, the LDL-C levels result in experiment [2] (FIG. 11) is “statistically significant reduction in LDL-C levels compared to the placebo group”.
